Common to all, as to format: cell-based
Experiment [1] deals with isolated rat soleus muscles. Put plainly: Recovery of nerve-stimulated force in isolated rat soleus muscles exposed to sub-maximal tubocurarine. Particulars: 9-AC added after tubocurarine; nerve stimulation by suction electrode, 60 Hz. The method, then:
(§1) Experiments were performed using rat soleus muscles from either young (4-wk-old) or adult Wistar rats (12-14-week-old). Animal handling, killing and isolation of muscle is described elsewhere All experiments were performed using normal Krebs-Ringer bicarbonate solution (NKR). In solutions with elevated Mg^2+, MgCl2 was added to NKR-solution causing minor increases in osmolarity and ionic strength. In solutions with elevated K^+, 4 mM NaCl was replaced by 4 mM KCl in the NKR.
In all contraction experiments, isometric force production was determined and force produced during contractions was quantified by measuring the integral of the force response (AUC). Stimulation and force recordings have been described elsewhere. […] In these latter experiments, extracellular recordings of action potentials (M-waves) could be measured without temporal overlap with stimulation artefacts.
(§2) The aim was to find compounds that by inhibition of CIC-1 channels can recover nerve-stimulated force under conditions of fatigue including conditions where fatigue is caused by compromised neuromuscular transmission. Neuromuscular transmission dysfunction can develop because of both pre- and/or post-synaptic complications in connection with a disorder or as part of neuromuscular blockade during/after surgery. In the initial series of drug testing, experiments were performed with isolated muscles in the presence of sub-maximal ACh receptor antagonist tubocurarine. Since the inclusion of tubocurarine caused a partial loss of neuromuscular transmission this experiment mimics the conditions in myasthenia gravis and neuromuscular blockade. To mimic conditions with pre-synaptic complication (Lambert Eaton syndrome, motor neuron disorder, polyneuropathy) the intact nerve-muscle preparations were incubated at elevated extracellular Mg^2+, which is known to suppress release of ACh from nerve terminals of motor neurons.
The experiments also illustrate that field stimulation of the entire nerve-muscle preparation selectively activates the motor nerve when short-duration pulses (0.02 vs 0.2 ms) were used. In FIG. 1A the preparation was stimulated either via field stimulation or via nerve-stimulation using a suction electrode. With the suction electrode only the nerve could be stimulated. When exposed to a submaximal concentration of the ACh receptor antagonist tubocurarine (0.2 μM) a clear drop in peak force and a further decline (or fade) in force during the stimulation developed. This drop in force clearly reflected compromised neuromuscular transmission, as the decline in peak force and fading were not seen with direct stimulation of the muscle. […] Thus, loss of M-wave and force with tubocurarine reflected partial blockade of neuromuscular function. Such fading of force and M-waves during stimulation represent clinical hallmarks of both myasthenia gravis and neuromuscular blockade in connection with surgery. In FIG. 1B, observations with normal (0.2 ms) and short-duration (0.02 ms) pulses have been compared. It can be seen that only with short-duration pulses did tubocurarine cause a decline in peak force and fading (FIG. 1B). This confirms that short-duration pulses in field stimulation could be used as specific nerve-stimulation. […] Elevated extracellular Mg^2+ could thus be used to partially block neuromuscular transmission and thus be used as a model of conditions with compromised pre-synaptic function (Lambert Eaton syndrome, amyotrophic lateral sclerosis, spinal muscular atrophy). […]

For experiment [2], the system named is isolated rat soleus muscles. Briefly: Recovery of nerve-stimulated force in isolated rat soleus muscles exposed to 3.5 mM Mg2+. Particulars: 9-AC added at 3.5 mM Mg2+; nerve stimulation by suction electrode, 60 Hz. The method, then: as §1
as §2, with “Since the inclusion of tubocurarine caused a partial loss of neuromuscular transmission this experiment mimics the conditions in myasthenia gravis and neuromuscular blockade.” left out

In a further experiment the test system is isolated rat muscle. Put plainly: Measurement of force in an in vitro model: isolated rat soleus nerve-muscle preparation, 115 nM tubocurarine. Particulars: 50 μM compound after 90 min in tubocurarine. The method, then:
FIGS. 12A-12B. […] Force traces from a representative muscle stimulated to contract in 1) control condition before addition of neuromuscular blocking agent, 2) the force response to stimulation after 90 minutes incubation with Tubocurarine. […] The traces presented in FIG. 12A (1, 2, 3), correspond to the dotted lines in FIG. 12B, respectively.
Recovery of force is quantified as the percentage of the force prior to tubocurarine that is recovered by the compound.
The current invention relates to compounds that inhibit CIC-1 ion channels and increase muscle excitability and thereby improve muscle function in clinical conditions where muscle activation is failing. Such conditions result in loss of contractile function of skeletal muscle, weakness and excessive fatigue. […]
Experimentally, soleus muscles from 4-5 wk old rats were isolated with the motor nerve remaining attached. […] Stimulation of the motor nerve led to activation of the muscle fibres and ensuing force production that was recorded.
After mounting the nerve-muscle preparation in the experimental setup, the contractile function of the muscle was initially assessed under the control conditions (FIG. 2A). […] To quantify the ability of the compound to restore force the percentage of the initial force that was restored was determined after 40 mins of compound exposure (FIG. 2B) and the point increase is reported in Table 8.

As for `O=C(O)c1c2ccccc2cc2ccccc12` [Compound 9-AC, 9-anthracenecarboxylic acid, reference compound], the “recovery of force and M-wave signal” value in experiment [1] is “marked recovery of both force and M-wave signal”; in experiment [2] it was “marked recovery of both force and M-wave signal”. As to `O=C(O)[C@H](CF)Oc1ccc(Br)cc1F` [Compound A-19, (2R)-2-(4-bromo-2-fluorophenoxy)-3-fluoropropanoic acid], the “recovery of force (in words)” value in the experiment with isolated rat muscle is reported as “subsequently recovered”.

The record behind these values is patent US11730714B2, “Compounds for the treatment of neuromuscular disorders” (NMD PHARMA A/S, priority 2017, dated 2023).
